Results from EP4603105A1, “PHARMACEUTICAL COMPOSITION CONTAINING CYCLIC COMPOUND HAVING SELECTIVE KRAS INHIBITORY EFFECT AGAINST HRAS AND NRAS” (CHUGAI SEIYAKU KABUSHIKI KAISHA, priority 2022, dated 2024).
pIC50: −log10 of the molar value. Where a SMILES comes first, the peptide text is derived from it. Bridges are numbered along the chain shown (N, C = ends). [ ]: non-standard residue; d: D form. The star is where a group is joined. hPhe(3,5-F2-4-CF3) = N[C@@H](CCc1cc(F)c(C(F)(F)F)c(F)c1)C(=O)O; hPhe(3-Cl-4-CF3) = N[C@@H](CCc1ccc(C(F)(F)F)c(Cl)c1)C(=O)O; NPrPhe(4-CF3) = CCCN[C@@H](Cc1ccc(C(F)(F)F)cc1)C(=O)O; NMeGly(cPent) = CN[C@H](C(=O)O)C1CCCC1; Pro(4,4-F2) = O=C(O)[C@@H]1CC(F)(F)CN1; αMeCha = C[C@](N)(CC1CCCCC1)C(=O)O; NMeD = CN[C@@H](CC(=O)O)C(=O)O; NMeL = CN[C@@H](CC(C)C)C(=O)O; Morpholide = C1CN(*)CCO1; Ac5c = NC1(C(=O)O)CCCC1; Aze = O=C(O)[C@@H]1CCN1; NEtG = CCNCC(=O)O; Sar = CNCC(=O)O

Tests used:
[1] = molecular target: GDP-bound NRAS wild-type protein (Homo sapiens, UniProt P01111); experiment: Binding to NRAS by surface plasmon resonance (SPR), KD and KD ratio to KRAS
GDP-bound NRAS wild-type protein, sequence (P01111 whole entry): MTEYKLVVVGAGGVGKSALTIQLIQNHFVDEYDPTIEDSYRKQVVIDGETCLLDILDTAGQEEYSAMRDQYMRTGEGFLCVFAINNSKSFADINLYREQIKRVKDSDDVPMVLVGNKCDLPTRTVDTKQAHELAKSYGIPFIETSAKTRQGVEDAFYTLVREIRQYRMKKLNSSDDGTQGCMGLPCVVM
Procedure, shortened: (§1)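 Captured GDP-RAS (~100–300 RU) was exposed to increasing compound concentrations, 75 s per step, in running buffer with 10 µM GDP, 10 mM MgCl2 and 4% DMSO at pH 7.4.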

HRAS wild-type protein = HRAS wild-type protein (Homo sapiens, UniProt P01112); experiment: Binding to HRAS by surface plasmon resonance (SPR), KD and KD ratio to KRAS
HRAS wild-type protein, sequence (P01112 whole entry): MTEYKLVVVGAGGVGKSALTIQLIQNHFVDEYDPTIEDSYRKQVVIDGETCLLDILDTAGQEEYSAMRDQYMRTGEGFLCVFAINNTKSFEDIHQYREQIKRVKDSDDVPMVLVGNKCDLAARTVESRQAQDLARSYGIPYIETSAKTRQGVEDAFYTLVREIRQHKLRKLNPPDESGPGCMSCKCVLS
Procedure, shortened: as §1

[2] = test system: human lung cancer strain NCI-H441; format: cell-based
Procedure, shortened: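 Step one: dispense the test compound in serial DMSO dilutions. Step three: add the reagent and measure […].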

[3] = ratio of KD for GDP-bound NRAS wild-type protein to KD for KRAS
[4] = ratio of KD for HRAS wild-type protein to KD for KRAS
[5] = ratio of the KD value with respect to GDP-bound NRAS wild-type protein to the KD value with respect to KRAS
[6] = ratio of the KD value with respect to HRAS wild-type protein to the KD value with respect to KRAS

| SMILES | pIC50 [2] | NRAS /KRAS [1, 3] | HRAS /KRAS (HRAS wild-type protein; [4]) | NRAS /KRAS [1, 5] | HRAS /KRAS (HRAS wild-type protein; [6]) | NRAS /KRAS ([1]; ratio of KD value for GDP-bound NRAS wild-type protein to KD value for KRAS (SPR)) | HRAS /KRAS (HRAS wild-type protein; ratio of KD value for HRAS wild-type protein to KD value for KRAS (SPR)) |
| --- | --- | --- | --- | --- | --- | --- | --- |
| CCCN1C(=O)[C@@H]2CCN2C(=O)CN(C)C(=O)[C@H]([C@@H](C)CC)NC(=O)[C@H](CC(C)C)N(C)C(=O)C[C@@H](C(=O)N2CCOCC2)N(C)C(=O)[C@H](C2CCCC2)N(C)C(=O)[C@](C)(CC2CCCCC2)NC(=O)[C@@H]2CCCN2C(=O)[C@H](CCc2cc(F)c(C(F)(F)F)c(F)c2)NC(=O)CN(C)C(=O)[C@@H]1Cc1ccc(C(F)(F)F)cc1 [PP0796] ([NMeL]I[Sar][Aze][NPrPhe(4-CF3)][Sar][hPhe(3,5-F2-4-CF3)]P[αMeCha][NMeGly(cPent)][NMeD]-Morpholide; lactam N-11) | 6.36 | C (A compound having a KD ratio of 0.1 or more and less than 3 is denoted as C) | B (a compound having 3 or more and less than 10 is denoted as B) |  |  |  |  |
| CCCO[C@@H]1C[C@H]2C(=O)NC3(CC(C)(C)C3)C(=O)N(C)[C@@H](C3CCCC3)C(=O)N(C)[C@H](C(=O)N(C)C)CC(=O)N(C)[C@H]3CCCCc4ccc(cc4)C[C@@H](C(=O)N(C)CC(=O)N[C@@H](CCc4ccc(C(F)(F)F)c(OC)c4)C(=O)N2C1)N1CC/C=C\C[C@@H](C1=O)N(C)C(=O)CN(C)C(=O)[C@H]([C@@H](C)CC)NC3=O [PP3077] | 9.10 | A (a compound having 10 or more and less than 20 is denoted as A) | B (a compound having 3 or more and less than 10 is denoted as B) |  |  |  |  |
| CCCN1C(=O)CN(C)C(=O)CN(CC)C(=O)[C@H]([C@@H](C)CC)NC(=O)[C@H](CC(C)C)N(C)C(=O)C[C@@H](C(=O)N2CCOCC2)N(C)C(=O)[C@H](C2CCCC2)N(C)C(=O)C2(CCCC2)NC(=O)[C@@H]2CC(F)(F)CN2C(=O)[C@H](CCc2ccc(C(F)(F)F)c(Cl)c2)NC(=O)CN(C)C(=O)[C@@H]1Cc1ccc(C(F)(F)F)cc1 [PP0399] ([NMeL]I[NEtG][Sar][NPrPhe(4-CF3)][Sar][hPhe(3-Cl-4-CF3)][Pro(4,4-F2)][Ac5c][NMeGly(cPent)][NMeD]-Morpholide; lactam N-11) | 8.20 |  |  | B (a compound having 3 or more and less than 10 is denoted as B) | C (A compound having a KD ratio of 0.1 or more and less than 3 is denoted as C) |  |  |
| CCO[C@@H]1C[C@H]2C(=O)NC3(CCC3)C(=O)N(C)[C@@H](C3CCCC3)C(=O)N[C@H](C(=O)N(C)C)CC(=O)N(C)[C@@H](CC)C(=O)N[C@@H]([C@@H](C)CC)C(=O)N(C)CC(=O)N(C)[C@H]3C/C=C\CCN(C3=O)[C@@H](Cc3ccc(C(F)(F)F)cc3)C(=O)N(C)CC(=O)N[C@@H](CCc3cc(F)c(C(F)(F)F)c(F)c3)C(=O)N2C1 [PP1094] | 6.11 | A (a compound having 10 or more and less than 20 is denoted as A) | B (a compound having 3 or more and less than 10 is denoted as B) |  |  |  |  |
| CCC[C@H]1C(=O)N[C@@H]([C@@H](C)CC)C(=O)N(C)CC(=O)N(C)[C@H]2C/C=C\CCN(C2=O)[C@@H](Cc2ccc(C)cc2)C(=O)N(C)CC(=O)N[C@@H](CCc2ccc(C(F)(F)F)c(OC)c2)C(=O)N2C[C@@H](C)C[C@H]2C(=O)NC2(CC(C)(C)C2)C(=O)N(C)[C@@H](C2CCCC2)C(=O)N(C)[C@H](C(=O)N(C)CC)CC(=O)N1C [PP1889] | 7.90 |  |  |  |  | A (a compound having 10 or more and less than 20 is denoted as A) | B (a compound having 3 or more and less than 10 is denoted as B) |

Further lines, with some results ahead:

| pIC50 [2] | SMILES | NRAS /KRAS [1, 3] | HRAS /KRAS (HRAS wild-type protein; [4]) | NRAS /KRAS [1, 5] | HRAS /KRAS (HRAS wild-type protein; [6]) | NRAS /KRAS ([1]; ratio of KD value for GDP-bound NRAS wild-type protein to KD value for KRAS (SPR)) | HRAS /KRAS (HRAS wild-type protein; ratio of KD value for HRAS wild-type protein to KD value for KRAS (SPR)) |
| --- | --- | --- | --- | --- | --- | --- | --- |
| 7.94 | CCO[C@@H]1C[C@H]2C(=O)NC3(CCC3)C(=O)N(C)[C@@H](C3CCCC3)C(=O)N(C)[C@H](C(=O)N(C)C)CC(=O)N(C)[C@@H](COC)C(=O)N[C@@H]([C@@H](C)CC)C(=O)N(C)CC(=O)N(C)[C@H]3CCCCN(C3=O)[C@@H](Cc3ccc(C(F)(F)F)cc3)C(=O)N(C)CC(=O)N[C@@H](CCc3cc(F)c(C(F)(F)F)c(F)c3)C(=O)N2C1 [PP0704] |  |  | C (A compound having a KD ratio of 0.1 or more and less than 3 is denoted as C) | C (A compound having a KD ratio of 0.1 or more and less than 3 is denoted as C) |  |  |
| 6.24 | CC[C@H](C)[C@@H]1NC(=O)[C@H](COC)N(C)C(=O)C[C@@H](C(=O)N2CCOCC2)N(C)C(=O)[C@H](C2CCCC2)N(C)C(=O)C2(CCC2)NC(=O)[C@@H]2CCN2C(=O)[C@H](CCc2cc(F)c(C(F)(F)F)c(F)c2)NC(=O)CN(C)C(=O)[C@H](Cc2ccc(C(F)(F)F)cc2)N2CCCCC[C@@H](C2=O)N(C)C(=O)CN(C)C1=O [PP0840] | B (a compound having 3 or more and less than 10 is denoted as B) | B (a compound having 3 or more and less than 10 is denoted as B) |  |  |  |  |
| 7.45 | CCO[C@@H]1C[C@H]2C(=O)NC3(CCC3)C(=O)N(C)[C@@H](C3CCCC3)C(=O)N(C)[C@H](C(=O)N3CCOCC3)CC(=O)N(C)[C@@H](CC)C(=O)N[C@@H]([C@@H](C)CC)C(=O)N(C)CC(=O)N(C)[C@H]3CCCCCN(C3=O)[C@@H](Cc3ccc(C(F)(F)F)cc3)C(=O)N(C)CC(=O)N[C@@H](CCc3cc(F)c(C(F)(F)F)c(F)c3)C(=O)N2C1 [PP0678] |  |  | B (a compound having 3 or more and less than 10 is denoted as B) | B (a compound having 3 or more and less than 10 is denoted as B) |  |  |
